Reference: ChEMBL document CHEMBL1143340, “Osteogenic activity of constituents from Butea monosperma” (Bioorg Med Chem Lett, 2009)
The source made the active and inactive calls. The calls are words filed in the database; no cut-off is given here.

Tested on: Osteoblast
Assay: Induction of mineralization in Sprague-Dawley rat calvaria derived primary osteoblast after 7 days by Alizarin Red S staining
Type: functional, cell-based

Question: Which Activity does the source give for `COc1ccc2c(=O)c(-c3ccc(O)cc3)coc2c1` here?
Answer: Active

Question: With `COc1cc(O)c2c(=O)c(-c3ccc(O)cc3O)coc2c1` as the compound, how does the Activity read?
Answer: Active

Question: With `COc1ccc(-c2coc3cc(O)ccc3c2=O)cc1OC` as the compound, how does the Activity read?
Answer: Active

Question: With `COc1ccc(-c2coc3cc(O)ccc3c2=O)cc1` as the compound, how does the Activity read?
Answer: Active
